{"source": "patent US20240197683A1", "about": "(JIANGSU UNIVERSITY, priority 2023, published 2024)", "key": {"[1]": {"system": "mice with sepsis-related acute lung injury", "experiment": "Sepsis-related acute lung injury in mice (BALF, leakage, arterial oxygen)", "assay_type": "in vivo", "text": "Comparisons of data between the four groups are of statistical significance.\nChanges in the protein content of mouse BALF, the Evans blue content and the wet/dry weight ratio are shown. […] There is a downward trend in the arterial partial pressure of oxygen in all the injury group mice relative to the normal mice."}, "[2]": {"system": "mice with LPS-induced sepsis", "experiment": "Edema in organs (wet/dry weight ratio) of mice with sepsis", "assay_type": "in vivo", "settings": "prevention"}, "cytokine-infused rats": {"system": "cytokine-infused rats", "settings": "cited from earlier work"}, "[3]": {"system": "mice with LPS-induced sepsis", "settings": "20 mg/kg LPS i.p.; for average survival time: LPS group 28.8±6.22 h", "method": "Method: A mouse model of sepsis was induced by intraperitoneal injection of different toxic doses of 5 mg/kg, 10 mg/kg and 20 mg/kg LPS, and the effects of different doses of LPS on the survival rate of mice with sepsis were observed.\nSepsis was induced by intraperitoneal injection of 5 mg/kg, 10 mg/kg and 20 mg/kg LPS. […] Sepsis was induced by intraperitoneal injection of 20 mg/kg LPS."}, "[4]": {"system": "mice with sepsis-related acute lung injury", "experiment": "Efficacy of HucMSC-NVs loaded with ergothioneine in sepsis-related acute lung injury", "assay_type": "in vivo", "settings": "FIG. 11 A-C", "text": "Referring to FIG. 11, three classical inflammatory factors (IL-1β, IL-6, and TNF-α) in BALF are shown in panels A-C."}, "[5]": {"system": "TLR-4/MyD88/NF-κB signaling pathway", "experiment": "Related gene expression in lung tissues of mice with sepsis", "assay_type": "in vivo", "settings": "after treatment and prevention", "text": "The differences are of statistical significance."}, "[6]": {"system": "IL-6, IL-1β and TNF-α in mouse serum", "experiment": "Inflammatory factors in blood of mice with sepsis at different time points", "assay_type": "in vivo"}, "A549 cells": {"system": "A549 cells", "settings": "co-treatment with TNF-α or H2O2; cited from earlier work"}, "[7]": {"settings": "prevention: tail vein injection 1 h before 20 mg/kg LPS i.p., FIG. 3"}, "[8]": {"settings": "treatment: tail vein injection 2 h after 20 mg/kg LPS i.p., FIG. 4"}}, "note": "Counter-ions that a name gives are not always drawn. Like-named read-outs stand apart in the source and are kept apart here."}
{"compound": "C[N+](C)(C)[C@@H](Cc1c[nH]c(=S)[nH]1)C(=O)[O-]", "note": "[ergothioneine, (S)-α-Carboxy-N,N,N-trimethyl-2-mercapto-1H-imidazole-4-ethanaminium inner salt]", "values": [{"measurement": "arterial partial pressure of oxygen", "setting": "[1]; different concentrations of EGT, FIG. 7 G", "result": "significantly improved"}, {"measurement": "inflammatory factor levels in BALF (IL-1β, IL-6 and TNF-α)", "setting": "[1]; four groups with different concentrations of ergothioneine, FIG. 7 A-C", "result": "reduced inflammatory factor levels in BALF"}, {"measurement": "kidney edema", "setting": "[2]", "result": "not significantly ameliorated"}, {"measurement": "acute lung injury", "setting": "cytokine-infused rats", "result": "reduce acute lung injury"}, {"measurement": "average survival time", "setting": "[3]; 5 mg/kg ergothioneine", "result": "41.4 ± 10.48", "unit": "h"}, {"measurement": "average survival time", "setting": "[3]; 10 mg/kg ergothioneine", "result": "44.4 ± 3.921", "unit": "h"}, {"measurement": "mortality in mice with sepsis", "setting": "[3]; FIG. 2", "result": "reduced mortality"}, {"measurement": "average survival time", "setting": "[3]; 50 mg/kg ergothioneine", "result": "46.8 ± 2.68", "unit": "h"}, {"measurement": "mice died", "setting": "[3]; prevention, 5 mg/kg ergothioneine", "result": 2, "unit": "mice"}, {"measurement": "mice died", "setting": "[3]; prevention, 10 mg/kg ergothioneine", "result": 3, "unit": "mice"}, {"measurement": "mice died", "setting": "[3]; prevention, 20 mg/kg ergothioneine", "result": "all"}, {"measurement": "mice died", "setting": "[3]; prevention, 50 mg/kg ergothioneine", "result": 1, "unit": "mouse"}, {"measurement": "mice died", "setting": "[3]; treatment, 5 mg/kg ergothioneine", "result": "all"}, {"measurement": "mice died", "setting": "[3]; treatment, 10 mg/kg ergothioneine", "result": "all"}, {"measurement": "mice died", "setting": "[3]; treatment, 20 mg/kg ergothioneine", "result": 4, "unit": "mice"}, {"measurement": "mice died", "setting": "[3]; treatment, 50 mg/kg ergothioneine", "result": 3, "unit": "mice"}, {"measurement": "level of inflammatory factors in BALF (IL-6, TNF-α, IL-1β)", "setting": "[4]", "result": "reduced the level of inflammatory factors in BALF"}, {"measurement": "TLR-4 gene expression", "setting": "[5]; FIG. 9 A", "result": "significantly down-regulated"}, {"measurement": "MyD88 gene expression", "setting": "[5]; FIG. 9 B", "result": "significantly down-regulated"}, {"measurement": "NF-κB gene expression", "setting": "[5]; FIG. 9 C", "result": "significantly down-regulated"}, {"measurement": "IL-1β release in blood", "setting": "[6]; [7]", "result": "significantly reduced"}, {"measurement": "IL-6 release in blood", "setting": "[6]; [7]", "result": "significantly reduced"}, {"measurement": "IL-6 release in blood", "setting": "[6]; [8]", "result": "significantly reduced"}, {"measurement": "TNF-α release in blood", "setting": "[6]; [8]", "result": "significantly reduced"}, {"measurement": "GSH level", "setting": "A549 cells", "result": "protected the cells from decreases in the GSH level"}, {"measurement": "NF-κB activation", "setting": "A549 cells", "result": "inhibited NF-κB activation"}]}
